In PubChem BioAssay AID248 (DTP/NCI, 2004) one finds T/C data, which are given here for 20 compounds.

Molecules are shown by their SMILES. Where “and” joins values, the source holds several entries; their conditions need not be identical. Identical values can stand only once. Toxic doses and inconclusive results are not listed.

The assay concerns L1210 leukemia ip in BDF1 mice, survival T/C. The assay can be described thus: NCI In Vivo Anticancer Drug Screen. Data for tumor model L1210 Leukemia (intraperitoneal) in B6D2F1 (BDF1) mice. As to conditions: endpoint: mean survival time, higher = longer survival. The gist of the method:
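Transplantable tumor model; survival measured in treated vs vehicle control mice. Value = treated/control.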

Where [1] appears, read: dose: 100.0 mg/kg/injection, schedule: Q01DX009 (ip), vehicle: Klucel (hydroxypropylcellulose) (HPC).
Where [2] appears, read: dose: 100.0 mg/kg/injection, schedule: Q04DX003 (ip), vehicle: Klucel (hydroxypropylcellulose) (HPC).
[3] abbreviates: dose: 200.0 mg/kg/injection, schedule: Q01DX009 (ip), vehicle: Klucel (hydroxypropylcellulose) (HPC).
Where [4] appears, read: dose: 200.0 mg/kg/injection, schedule: Q04DX003 (ip), vehicle: Klucel (hydroxypropylcellulose) (HPC).
The mark [5] stands for this setting: dose: 400.0 mg/kg/injection, schedule: Q04DX003 (ip), vehicle: Klucel (hydroxypropylcellulose) (HPC).
Setting [6] is: dose: 50.0 mg/kg/injection, schedule: Q04DX003 (ip), vehicle: Klucel (hydroxypropylcellulose) (HPC).
Where [7] appears, read: dose: 50.0 mg/kg/injection, schedule: Q01DX009 (ip), vehicle: Klucel (hydroxypropylcellulose) (HPC).
[8] abbreviates: dose: 100.0 mg/kg/injection, schedule: Q01DX001 (ip), vehicle: saline.
[9] abbreviates: dose: 200.0 mg/kg/injection, schedule: Q01DX001 (ip), vehicle: saline.
[10] abbreviates: dose: 50.0 mg/kg/injection, schedule: Q01DX009 (ip), vehicle: saline.
The mark [11] stands for this setting: dose: 100.0 mg/kg/injection, schedule: Q01DX009 (ip), vehicle: saline.
[12] abbreviates: dose: 200.0 mg/kg/injection, schedule: Q01DX009 (ip), vehicle: saline.
The mark [13] stands for this setting: dose: 100.0 mg/kg/injection, schedule: Q01DX009 (ip), vehicle: saline with Tween-80.
The mark [14] stands for this setting: dose: 200.0 mg/kg/injection, schedule: Q01DX009 (ip), vehicle: saline with Tween-80.
The mark [15] stands for this setting: dose: 400.0 mg/kg/injection, schedule: Q01DX009 (ip), vehicle: Klucel (hydroxypropylcellulose) (HPC).

Regarding `O=C(O)c1ccc(CNc2ccc(C(=O)CCl)cc2)cc1`, the T/C runs as follows: (dose: 100.0 mg/kg/injection, schedule: Q01DX001 (ip), vehicle: carboxymethylcellulose (CMC)) 102 % of control; (dose: 200.0 mg/kg/injection, schedule: Q01DX001 (ip), vehicle: carboxymethylcellulose (CMC)) 102 % of control; (dose: 400.0 mg/kg/injection, schedule: Q01DX001 (ip), vehicle: carboxymethylcellulose (CMC)) 118 % of control.

As to `O=Cc1ccc(N2CCCCC2)cc1`, the T/C under setting [1] is 100 % of control; the T/C under setting [2] is 101 % of control; the T/C under setting [3] is 107 % of control; the T/C under setting [4] is 95 % of control; the T/C under setting [5] is 89 % of control.

`O=C(NCCCl)NN1CCCCC1`: the T/C under setting [6] was 113 % of control, the T/C under setting [2] was 113 % of control and the T/C under setting [4] was 113 % of control.

With `COc1ccc([N+](=O)[O-])cc1NC(=O)Oc1ccc(F)cc1`, the T/C under setting [7] is 100 % of control, the T/C under setting [1] was 92 % of control and the T/C under setting [3] was 96 % of control.

As for `O=C(NC1CCCC2CCCCC21)OCCC1CCCCC1` (stereo unspecified), the T/C under setting [8] was 95 % of control; the T/C under setting [9] was 103 % of control; the T/C (dose: 400.0 mg/kg/injection, schedule: Q01DX001 (ip), vehicle: saline) was 95 % of control.

With `CSC(N)=Nc1ccccc1`, the T/C was 96 % of control (dose: 87.5 mg/kg/injection, schedule: Q01DX009 (ip), vehicle: saline) and 100 % of control (dose: 175.0 mg/kg/injection, schedule: Q01DX009 (ip), vehicle: saline).

In the case of `CC(C)(CP(c1ccccc1)c1ccccc1)c1ccccc1`, the T/C (dose: 25.0 mg/kg/injection, schedule: Q04DX002 (ip), vehicle: saline with Tween-80) was 95 % of control; the T/C (dose: 50.0 mg/kg/injection, schedule: Q04DX002 (ip), vehicle: saline with Tween-80) is 95 % of control; the T/C (dose: 100.0 mg/kg/injection, schedule: Q04DX002 (ip), vehicle: saline with Tween-80) is 89 % of control; the T/C (dose: 200.0 mg/kg/injection, schedule: Q04DX002 (ip), vehicle: saline with Tween-80) was 92 % of control.

`CS(=O)(=O)OCC1C2CCC(CC2)C1COS(C)(=O)=O` (stereo unspecified): the T/C is 100 % of control under setting [2], 103 % of control under setting [4] and 102 % of control under setting [5].

Consider `[Si]c1cccc2ccccc12`, for which the T/C runs as follows: (dose: 25.6 mg/kg/injection, schedule: Q04DX002 (ip), vehicle: saline with Tween-80) 97 % of control; (dose: 64.0 mg/kg/injection, schedule: Q04DX002 (ip), vehicle: saline with Tween-80) 97 % of control; (dose: 160.0 mg/kg/injection, schedule: Q04DX002 (ip), vehicle: saline with Tween-80) 97 % of control; (dose: 400.0 mg/kg/injection, schedule: Q04DX002 (ip), vehicle: saline with Tween-80) 101 % of control.

For the compound `NCCSC(c1ccccc1)(c1ccccc1)c1ccccc1`, the T/C is 94 % of control (dose: 25.0 mg/kg/injection, schedule: Q01DX009 (ip), vehicle: saline); 103 % of control under setting [10]; 107 % of control under setting [11].

Regarding `CS(=O)(=O)OC12CC3CC(CC(C3)C1)C2`, the T/C is, setting by setting: under setting [10], 96 % of control; under setting [8], 90 % of control; under setting [11], 96 % of control; under setting [9], 98 % of control; under setting [12], 94 % of control.

Regarding `CC1=CC(C)(C)Nc2cc(N)ccc21`, the T/C is, setting by setting: (dose: 75.0 mg/kg/injection, schedule: Q01DX001 (ip), vehicle: other) 110 % of control; (dose: 150.0 mg/kg/injection, schedule: Q01DX001 (ip), vehicle: other) 105 % of control; (dose: 300.0 mg/kg/injection, schedule: Q01DX001 (ip), vehicle: other) 91 % of control.

For the compound `Cc1nc2ccccc2c(C)c1-c1c(C)nc2ccccc2c1C`, the T/C reads like this: (dose: 100.0 mg/kg/injection, schedule: Q01DX001 (ip), vehicle: Klucel (hydroxypropylcellulose) (HPC)) 98 % of control; under setting [11], 97 % of control; (dose: 100.0 mg/kg/injection, schedule: Q04DX003 (ip), vehicle: saline) 100 % of control; (dose: 200.0 mg/kg/injection, schedule: Q01DX001 (ip), vehicle: Klucel (hydroxypropylcellulose) (HPC)) 108 % of control; under setting [12], 95 % of control; (dose: 200.0 mg/kg/injection, schedule: Q04DX003 (ip), vehicle: saline) 97 % of control. In addition, the T/C runs as follows: (dose: 400.0 mg/kg/injection, schedule: Q01DX001 (ip), vehicle: Klucel (hydroxypropylcellulose) (HPC)) 103 % of control; (dose: 400.0 mg/kg/injection, schedule: Q01DX009 (ip), vehicle: saline) 94 % of control; (dose: 400.0 mg/kg/injection, schedule: Q04DX003 (ip), vehicle: saline) 94 % of control.

Turning to `O=C(O)C1Cc2c([nH]c3ccccc23)C(c2ccccc2)N1` (stereo unspecified), the T/C is 96 % of control under setting [13]; 104 % of control (dose: 100.0 mg/kg/injection, schedule: Q04DX003 (ip), vehicle: saline with Tween-80); 94 % of control under setting [14]; 102 % of control (dose: 200.0 mg/kg/injection, schedule: Q04DX003 (ip), vehicle: saline with Tween-80); 97 % of control (dose: 400.0 mg/kg/injection, schedule: Q01DX009 (ip), vehicle: saline with Tween-80); 96 % of control (dose: 400.0 mg/kg/injection, schedule: Q04DX003 (ip), vehicle: saline with Tween-80).

`CN(C(=O)c1ccc(C(=N)N)cc1)c1ccccc1`: the T/C was 100 % of control (dose: 100.0 mg/kg/injection, schedule: Q01DX001 (ip), vehicle: saline with Tween-80) and 100 % of control (dose: 200.0 mg/kg/injection, schedule: Q01DX001 (ip), vehicle: saline with Tween-80).

Regarding `O=C(Nc1ccccc1Cl)Oc1ccccc1Cc1ccccc1`, the T/C is, setting by setting: under setting [1], 96 % of control; under setting [2], 107 % of control; under setting [3], 93 % of control; under setting [4], 90 % of control; under setting [15], 115 % of control; under setting [5], 93 % of control.

In the case of `O=C1/C(=C\c2ccccn2)CCCc2ccccc21`, the T/C was 102 % of control (dose: 25.0 mg/kg/injection, schedule: Q01DX009 (ip), vehicle: Klucel (hydroxypropylcellulose) (HPC)); 98 % of control under setting [7]; 98 % of control under setting [6]; 101 % of control under setting [1]; 98 % of control under setting [2]; 96 % of control (dose: 100.0 mg/kg/injection, schedule: Q04DX003 (ip), vehicle: carboxymethylcellulose (CMC)). Moreover, the T/C runs as follows: under setting [3], 100 % of control; under setting [4], 102 % of control; (dose: 200.0 mg/kg/injection, schedule: Q04DX003 (ip), vehicle: carboxymethylcellulose (CMC)) 100 % of control; under setting [15], 102 % of control; under setting [5], 93 % of control; (dose: 400.0 mg/kg/injection, schedule: Q04DX003 (ip), vehicle: carboxymethylcellulose (CMC)) 156 % of control. Moreover, the T/C (dose: 800.0 mg/kg/injection, schedule: Q04DX003 (ip), vehicle: Klucel (hydroxypropylcellulose) (HPC)) was 104 % of control.

As to `Nc1ncnc2c1nnn2C1CC2COP(=O)(O)OC2C1O` (stereo unspecified), the T/C runs as follows: (dose: 44.0 mg/kg/injection, schedule: Q01DX007 (ip), vehicle: saline with Tween-80) 103 % of control; (dose: 67.0 mg/kg/injection, schedule: Q01DX007 (ip), vehicle: saline with Tween-80) 114 % of control; (dose: 100.0 mg/kg/injection, schedule: Q01DX007 (ip), vehicle: saline with Tween-80) 101 % of control.

In the case of `CCOP(=O)(Cc1ccc(N(CCI)CCI)cc1)OCC`, the T/C was 116 % of control (dose: 75.0 mg/kg/injection, schedule: Q01DX001 (ip), vehicle: saline) and 116 % of control (dose: 150.0 mg/kg/injection, schedule: Q01DX001 (ip), vehicle: saline).

In the case of `Nc1ccc(C(=O)CC(O)(C(F)(F)F)C(F)(F)F)cc1`, the T/C was 92 % of control (dose: 25.0 mg/kg/injection, schedule: Q01DX009 (ip), vehicle: saline with Tween-80); 94 % of control (dose: 50.0 mg/kg/injection, schedule: Q01DX009 (ip), vehicle: saline with Tween-80); 100 % of control and 92 % of control under setting [13]; 95 % of control under setting [14].
